Read-outs that look alike come from different tables or passages of the source.
Tests used:
Experiment in all cases: CTG assay, effect on proliferation ability of tumor cells
Format in all cases: cell-based, human
NCI-N87 = conditions: NCI-N87, 168 h, read-out: IC50 (nM) NCI-N87
Protocol: (§1) Test method for the effect of camptothecin on the proliferation ability of tumor cells: The effect of camptothecin derivatives K1, K2, K3, K4, K5, K6, K7, K8, and K9 on the proliferation ability of tumor cells was tested using the CTG assay. Test cells (see Table 1) were digested, resuspended, and counted. The supernatant was removed by centrifugation, and the cell density was adjusted. Cell counting was performed with a cell counter: 20 µl of the cell suspension was aspirated, mixed with 20 µl of trypan blue, and 20 µl of the mixture was taken for cell counting. Cells were seeded into 96-well cell culture plates respectively, with 180 µl added to each well, and 1000 cells were plated per well. The plate was tapped gently to mix, and then placed in a 37°C cell incubator for incubation for 16 hours. Compounds were diluted with McCoy's 5A medium, and 20 µl was added to each well to achieve a maximum concentration of 100 nM, followed by 3-fold serial dilution with 10 concentration points. DMSO was used as the vehicle control, and 20 µl of McCoy's 5A medium was added to the blank control. The plate was tapped gently to mix, and then placed in a 37°C cell incubator for incubation for 7 days. After 7 days of incubation, the cell plate was taken out of the incubator, the culture medium was aspirated, 20 µl of culture medium was added to each well, and then 20 µl of CTG was added to each well. The plate was shaken on a shaker for 5 min and incubated at room temperature for 10 min. Then, 30 µl of the reaction solution was transferred to a Viewplate-96 white microplate (transparent bottom), and data analysis was performed on an EnVision microplate reader. [formula] Table 1. Overview of cell lines used in this screening

Calu-3 = conditions: Calu-3, 168 h, read-out: IC50 (nM) Calu-3
Protocol: as §1

HCT-116 = conditions: HCT-116, 168 h, read-out: IC50 (nM) HCT-116
Protocol: as §1

[1] = human gastric cancer cells, 7 days incubation, CTG
[2] = human lung adenocarcinoma cells, 7 days incubation, CTG
[3] = human colon cancer cells, 7 days incubation, CTG

Structure (SMILES) | IC50 (NCI-N87; Homo sapiens) [nM] | IC50 (Calu-3; Homo sapiens) [nM] | IC50 (HCT-116; Homo sapiens) [nM] | IC50 (NCI-N87; [1]) [nM] | IC50 (Calu-3; [2]) [nM] | IC50 (HCT-116; [3]) [nM]
CC[C@@]1(O)C(=O)OCc2c1cc1n(c2=O)Cc2c-1nc1cc(F)c(C)cc1c2-c1cn(CCO)nn1 [Compound K1] | 1.89 | 0.22 | 0.77 | – | – | –
CC[C@@]1(O)C(=O)OCc2c1cc1n(c2=O)Cc2c-1nc1cc(F)c(C)cc1c2-c1cn(CCCO)nn1 [Compound K2] | – | – | – | 2.21 | 0.29 | 0.89
CC[C@@]1(O)C(=O)OCc2c1cc1n(c2=O)Cc2c-1nc1cc(F)c(C)cc1c2-c1cn(CCCCO)nn1 [Compound K3] | – | – | – | 3.11 | 0.43 | 1.36
CC[C@@]1(O)C(=O)OCc2c1cc1n(c2=O)Cc2c-1nc1cc(F)c(C)cc1c2-c1cnn(CCO)c1 [Compound K4] | 1.72 | 0.15 | 0.42 | – | – | –
CC[C@@]1(O)C(=O)OCc2c1cc1n(c2=O)Cc2c-1nc1cc(F)c(C)cc1c2-c1cnn(CCCO)c1 [Compound K5] | – | – | – | 2.07 | 0.18 | 0.35
CC[C@@]1(O)C(=O)OCc2c1cc1n(c2=O)Cc2c-1nc1cc(F)c(C)cc1c2-c1cnn(CCCCO)c1 [Compound K6] | – | – | – | 2.88 | 0.28 | 0.78
CC[C@@]1(O)C(=O)OCc2c1cc1n(c2=O)Cc2c-1nc1cc(F)c(C)cc1c2-c1ccn(CCO)n1 [Compound K7] | – | – | – | 5.34 | 1.13 | 2.24
CC[C@@]1(O)C(=O)OCc2c1cc1n(c2=O)Cc2c-1nc1cc(F)c(C)cc1c2-c1ccn(CCCO)n1 [Compound K8] | – | – | – | 6.76 | 1.24 | 3.21
CC[C@@]1(O)C(=O)OCc2c1cc1n(c2=O)Cc2c-1nc1cc(F)c(C)cc1c2-c1ccn(CCCCO)n1 [Compound K9] | – | – | – | 7.82 | 1.89 | 3.87
